{"source": "patent US20240058298A1", "about": "“GENISTEIN FOR USE IN THE TREATMENT OF FOCAL SEGMENTAL GLOMERULOSCLEROSIS (FSGS)” (Delta 4 GmbH, priority 2020, published 2024)", "tested_on": "adriamycin induced nephropathy (FSGS model)", "test": "Adriamycin induced nephropathy mouse model of FSGS, proteinuria (UPCR, UACR) in spot urine", "assay_type": "in vivo, Female Balb/c mice", "settings": "for urinary protein to creatinine ratio (UPCR): Balb/c mice, adriamycin 10.5 mg/kg i.v., chow + genistein 500 mg/kg (about 80 mg/kg mouse/day) from day 2, weekly spot urine, vs control chow", "method": "For biological testing of genistein, the accepted mouse models of FSGS, was chosen, i.e. the adriamycin induced nephropathy. […] All animal experiments and handling were in accordance with the Austrian law for protection of animals and approved by the animal ethics committee of the Austrian ministry for science and research.\nAdriamycin (Doxorubicin; Sigma, D1515-10 mg) was diluted in ddH2O. To induce FSGS, a dose of 10.5 mg/kg mouse was injected i.v. into the tail vein using 27G needles, i.e. a total volume of 200 μl volume per 25 g mouse.\nFor tail vein injection, mice were anaesthetized using Ketanest (Pfizer, 25 mg/ml vials) and Rompun (Bayer, 20 mg/ml injection solution). A final mix of 12.5 mg/ml Ketanest and 0.25% Rompun in 0.9% NaCl solution was prepared and 200 μl/25 g mouse were injected. Genistein (Selleckchem, S1342) was used for therapy experiments.\nFemale Balb/c mice were obtained from the animal breeding facility of the Medical University (Abteilung kw Labortierkunde, Himberg, Austria). 8-18 weeks old animals with a weight >17g were used for the experiments and adjusted for weight and age. Animals were allowed acclimatization of at least 7 days. Animal were marked by ear or toe clip codes to allow identification. Adriamycin nephropathy in Balb/c mice is the most commonly used animal model for preclinical FSGS studies and shares the central features with human FSGS.\nStandard commercial chow from ssniff (ssniff Spezialdiäten GmbH, Soest, Germany) contained crude protein (19%), crude fat (3.3%), crude fiber (4.9%), crude ash (6.4%), starch (36.5%), sugar (4.7%). Control group animals were fed standard chow, test group animals standard chow+genistein (500 mg/kg) produced by ssniff. All animals were allowed to eat ad libitum assuming a daily average uptake of about 4 grams/mouse (according to animal care guideline of the Johns Hopkins University, Baltimore, MD, USA; http://web.jhu.edu/animalcare/ procedures/mouse.html), i.e. about 80 mg genistein/kg mouse/day (Odle et al. 2017).\nSpot urine was collected every week and Creatinine and protein levels were measured in the Clinical Institute for Laboratory Medicine of the Medical University Vienna.\nUrinary albumin was measured by ELISA. 96-well plates were coated over night at 4° C. with 100 μl antibody solution Anti Mouse Serum Albumin antibody (Abcam ab34807, Lot GR3242102-4; diluted 1:2,000) in coating buffer (3.7g NaHCO3; 0.64 g Na2CO3; 1L distilled water). The remaining procedure was performed at room temperature. Wells were washed 3× with HBSS (Sigma H8264-500ML) +0,05% Tween-20 (Bio-Rad, #1706531) and blocked in ELISA/ELISPOT Diluent (eBioscience, 00-4202-56) and washed again for 3×. Samples and standard curve were both diluted in ELISA/ELISPOT diluent were incubated for 2 h, followed by 3 wash steps with HBSS+0.05% Tween-20, incubated with HRP antibody Anti Mouse Serum Albumin antibody (Abcam ab19195, Lot GR3242102-4; diluted 1:100,000) for 1 h, followed by 5 was steps. Reaction was developed with TMB One Solution (Promega, G7431) and stopped with 2N H2SO4. Standard curves were generated with Mouse Albumin (Merck/Sigma, 126674-25MG). 450nm absorbance was measured on an Epoch Microplate reader (BioTek) using Gen5 1.10 software.\nR version 4.0.2 was used for statistical analysis. Student's t-test was used for comparing UPCR and UACR values between samples from treated and control mice for each individual time point and to assess differences in histological parameters. […]"}
{"smiles": "O=c1c(-c2ccc(O)cc2)coc2cc(O)cc(O)c12", "note": "[Genistein, 5,7-Dihydroxy-3-(4-hydroxyphenyl)chromen-4-one]", "values": [{"measurement": "urinary protein to creatinine ratio (UPCR)", "value": "marked amelioration"}, {"measurement": "urinary protein to creatinine ratio (UPCR)", "setting": "listed as compound of the present invention", "value": "significantly lowered"}, {"measurement": "Proteinuria", "setting": "adriamycin FSGS mice, genistein chow vs control", "value": "Significantly Reduces"}, {"measurement": "impact of genistein treatment over time on outcome determined based on UPCR levels (repeated measures ANOVA)", "setting": "adriamycin FSGS mice, genistein chow vs control, all collected urines (FIG. 1)", "value": "significant beneficial impact"}, {"measurement": "urine albumin/creatinine ratio (UACR)", "setting": "animal studies, urinary albumin by ELISA, genistein vs control", "value": "significantly lowered"}]}
